From ChEMBL document CHEMBL1155732, “Anti-AIDS agents. 46. Anti-HIV activity of harman, an anti-HIV principle from Symplocos setchuensis, and its derivatives” (J Nat Prod, 2001) come the findings set out here.

By EC50 is commonly meant the concentration giving half of the maximal effect. Broadly, the IC50 is the midpoint of a concentration-inhibition curve.

The test system of data set [1] is Human immunodeficiency virus 1. Kind of data set: Antiviral activity against HIV1 in human H9 cells assessed as inhibition of viral replication. Type of data set: functional, organism-based.
A short description of data set [2]: Therapeutic index, ratio of IC50 for human H9 cells to EC50 for HIV1. The data set is classed as cell-based. As to conditions: for selectivity ratio: H9 cells, read-out: Ratio IC50/EC50; for Ratio IC50/EC50: h9; call rule not given here.
A further data set deals with H9. Kind of data set: Cytotoxicity against human H9 cells. Type of data set: cell-based.
[3] abbreviates: Human immunodeficiency virus 1, H9, read-out: EC50.

Take `CCn1c2cc(OC)ccc2c2ccnc(C)c21`: the concentration giving a half-maximal response (EC50) in data set [1] (setting [3]) was 0.35 µM. For the same compound, the selectivity ratio in data set [2] was determined as 24.2. Also, in the data set on H9 (Homo sapiens, H9), the 50% inhibitory concentration (IC50) came to 8.5 µM.

Turning to `Br.COc1cc2[nH]c3c(C)nccc3c2cc1Br`, in data set [1] (h9, read-out: EC50), the EC50 turned out to be 0.22 µM. The Ratio IC50/EC50 in data set [2] was 26.8. The same compound showed an IC50 in the data set on H9 (h9) of 5.9 µM.

Take `COc1ccc2c(c1)[nH]c1c(C)[n+](C)ccc12.[I-]`: the EC50 in data set [1] (setting [3]) was determined as 8.6 µM. The Ratio IC50/EC50 in data set [2] was determined as 5.8. Also, it took 49.6 µM to reach half-maximal inhibition in the data set with H9 (Homo sapiens, H9) (IC50).

Regarding `COc1ccc2c(c1)[nH]c1c(/C=C/c3ccc([N+](=O)[O-])cc3)nccc12`, the EC50 entry in data set [1] (h9) was “Not Active”. The half-inhibitory concentration (IC50) in the data set with H9 (Homo sapiens, H9) was 15.4 µM.

Regarding `CCC[n+]1ccc2c([nH]c3cc(OC)ccc32)c1C.[I-]`, the EC50 in data set [1] (setting [3]) was found to be 9.6 µM. The Ratio IC50/EC50 in data set [2] turned out to be 5.8. The midpoint of inhibition with H9 (Homo sapiens, H9), the IC50, lay at 55.4 µM.

In the case of `COc1cc2[nH]c3c(C)nccc3c2cc1Br`, in data set [1] (h9, read-out: EC50), the EC50 worked out at 13.2 µM. The Ratio IC50/EC50 in data set [2] was determined as 5.6. Besides, the half-inhibitory concentration (IC50) with H9 (h9) is 74 µM.

As for `Cc1nccc2c1[nH]c1cc(OC(C)C)ccc12`, the EC50 result in data set [1] (h9) is “Not Active”. In addition, in the data set on H9 (Homo sapiens, H9), inhibition was half-maximal at 86.7 µM (IC50).

Consider `CCCCCCCCCCCCCCCCOc1ccc2c(c1)[nH]c1c(C)nccc12`, for which, in data set [1] (h9), the EC50 entry is recorded as “Not Active”. Besides, the IC50 in the data set on H9 (Homo sapiens, H9) turned out to be 42.7 µM.

As for `CCCCCCOc1ccc2c(c1)[nH]c1c(C)nccc12`, in data set [1] (h9), the EC50 result is reported as “Not Active”. In addition, the IC50 with H9 (Homo sapiens, H9) is 8.2 µM.

For `CCOc1ccc2c(c1)[nH]c1c(C)nccc12`, in data set [1] (setting [3]), the EC50 is 6.5 µM. Besides, the Ratio IC50/EC50 in data set [2] is 4. This compound registered an IC50 in the data set with H9 (Homo sapiens, H9) of 25.9 µM.

With `Cc1cc(O)n2c(n1)nc1ccccc12`, the EC50 entry in data set [1] (h9) is recorded as “Not Active”. In the data set with H9 (Homo sapiens, H9), this compound yielded a half-maximal inhibitory concentration (IC50) of 118 µM.

Turning to `CCCCCCCCCCOc1ccc2c(c1)[nH]c1c(C)nccc12`, in data set [1] (h9), the EC50 entry is reported as “Not Active”. Moreover, the IC50 in the data set on H9 (Homo sapiens, H9) worked out at 5.9 µM.

Take `CC1=NCCc2c1[nH]c1ccccc21`: the EC50 in data set [1] (setting [3]) turned out to be 32 µM. The Ratio IC50/EC50 in data set [2] stood at 3.4. In the data set on H9 (Homo sapiens, H9), this compound returned an IC50 of 110 µM.

Turning to `CC(=O)Oc1ccc2c(c1)[nH]c1c(C)nccc12`, the concentration giving a half-maximal response (EC50) in data set [1] (setting [3]) is 17.3 µM. In addition, the Ratio IC50/EC50 in data set [2] was 6.2. Further, the IC50 in the data set with H9 (Homo sapiens, H9) came to 107 µM.

Turning to `COc1ccc2c3c([nH]c2c1)C(C)N(N=O)CC3` (stereo not given), in data set [1] (setting [3]), the EC50 was 7.1 µM. In data set [2], the selectivity ratio amounted to 8. Besides, the concentration for half-maximal inhibition (IC50) in the data set with H9 (Homo sapiens, H9) came to 56.5 µM.

In the case of `CCCCn1c2cc(OC)ccc2c2ccnc(C)c21`, the concentration for a half-maximal effect (EC50) in data set [1] (setting [3]) turned out to be 0.037 µM. Further, the selectivity ratio in data set [2] is 210. Further, the midpoint of inhibition with H9 (Homo sapiens, H9), the IC50, lay at 7.8 µM.

With `COc1ccc2c3ccn(C)c(C)c-3nc2c1`, in data set [2], the Ratio IC50/EC50 was found to be 15.8. In addition, the IC50 in the data set with H9 (Homo sapiens, H9) was 70.9 µM.

For `COS(=O)(=O)O.Cc1nccc2c1[nH]c1ccccc12`, the 50% effective concentration (EC50) in data set [1] (h9, read-out: EC50) worked out at 10.3 µM. Besides, in data set [2], the “Ratio IC50/EC50” value amounted to 7.5. Moreover, the IC50 in the data set with H9 (h9) came out at 77.5 µM.

On to `COc1ccc2c3ccnc(C)c3n(C)c2c1`, for which the EC50 in data set [1] (setting [3]) was determined as 1.1 µM. Further, the selectivity ratio in data set [2] amounted to 9.2. In addition, the concentration for half-maximal inhibition (IC50) with H9 (Homo sapiens, H9) was 10.1 µM.

With `Cc1nccc2c1[nH]c1cc(OC(=O)C34CCC(C)(C(=O)O3)C4(C)C)ccc12` (stereo not given), the EC50 entry in data set [1] (h9) is “Not Active”. This compound returned an IC50 in the data set with H9 (Homo sapiens, H9) of 58.9 µM.

Take `CCCn1c2cc(OC)ccc2c2cc[n+](C)c(C)c21.[Br-]`: in data set [1] (setting [3]), the half-maximal effective concentration (EC50) was 23.8 µM. The Ratio IC50/EC50 in data set [2] is 2.2. The IC50 with H9 (Homo sapiens, H9) worked out at 53.2 µM.

Regarding `Br.CC1=NCCc2c1[nH]c1cc(O)ccc21`, in data set [1] (h9), the concentration giving a half-maximal response (EC50) entry is given as “Not Active”. It took 97.1 µM to reach half-maximal inhibition in the data set on H9 (Homo sapiens, H9) (IC50).

`CCCCCCCCC1NC(C(=O)O)Cc2c1[nH]c1ccccc21` (stereo not given): the EC50 result in data set [1] (h9) is reported as “Not Active”. In the data set with H9 (Homo sapiens, H9), this compound registered an IC50 of 60.4 µM.

Consider `COc1cc(C[C@H]2COC(=O)[C@@H]2Cc2ccc(OC(C)=O)c(OC)c2)ccc1OC(C)=O`, for which the concentration for a half-maximal effect (EC50) in data set [1] (setting [3]) was 6.9 µM. In addition, the selectivity ratio in data set [2] amounted to 7.1. The IC50 in the data set on H9 (Homo sapiens, H9) came to 49.3 µM.

As to `COc1cc([C@@H]2OC[C@@H]3[C@H]2CO[C@H]3c2ccc(O)c(OC)c2)ccc1O` [(+)-PINORESINOL], the EC50 entry in data set [1] (h9) is listed as “Not Active”. The IC50 in the data set with H9 (Homo sapiens, H9) was determined as 67 µM.

For the compound `CC1=NCCc2c1[nH]c1cc(O)ccc21.Cl` [HARMALOL HYDROCHLORIDE], the EC50 entry in data set [1] (h9) is listed as “Not Active”. Moreover, the IC50 in the data set with H9 (h9) came to 87.1 µM.

Turning to `Cc1nccc2c1[nH]c1ccccc12` [HARMAN], the EC50 in data set [1] (setting [3]) was 10.7 µM. Further, the selectivity ratio in data set [2] came out at 10.4. The compound further returned an IC50 in the data set on H9 (Homo sapiens, H9) of 112 µM.

As to `COc1ccc2c(c1)[nH]c1c(C)nccc12` [HARMINE], the EC50 in data set [1] (setting [3]) is 0.52 µM. Besides, in data set [2], the Ratio IC50/EC50 was 50.8. For the same compound, 26.4 µM corresponded to half-maximal inhibition with H9 (Homo sapiens, H9) (IC50).

Regarding `Cc1[nH]ccc2c1[nH]c1cc(=O)ccc12` [HARMOL], in data set [1] (setting [3]), the half-maximal effective concentration (EC50) was 11.1 µM. Moreover, the Ratio IC50/EC50 in data set [2] was 9.7. Moreover, the IC50 with H9 (Homo sapiens, H9) is 108 µM.

Turning to `COc1cc([C@H]2c3cc(O)c(OC)cc3C[C@@H](CO)[C@@H]2CO)ccc1O` [ISOLARICIRESINOL], in data set [1] (h9), the concentration for a half-maximal effect (EC50) entry is “Not Active”. The compound further displayed an IC50 with H9 (Homo sapiens, H9) above 277 µM.

Take `COc1cc(C[C@H]2COC(=O)[C@@H]2Cc2ccc(O)c(OC)c2)ccc1O` [MATAIRESINOL]: the EC50 in data set [1] (setting [3]) was determined as 2 µM. Further, in data set [2], the selectivity ratio came out at 11. The IC50 in the data set on H9 (Homo sapiens, H9) turned out to be 21.9 µM.

`COc1cc(C[C@H]2COC(=O)[C@@H]2Cc2ccc(O[C@@H]3O[C@H](CO)[C@@H](O)[C@H](O)[C@H]3O)c(OC)c2)ccc1O` [MATAIRESINOSIDE]: in data set [1] (h9), the concentration for a half-maximal effect (EC50) result is given as “Not Active”. In the data set on H9 (Homo sapiens, H9), this compound returned an IC50 above 192 µM.

With `c1ccc2c(c1)[nH]c1cnccc12` [NORHARMANE], the half-maximal effective concentration (EC50) in data set [1] (setting [3]) is 44.1 µM. The Ratio IC50/EC50 in data set [2] is 3.2. For the same compound, the IC50 in the data set on H9 (Homo sapiens, H9) turned out to be 142 µM.
